Source: patent publication US20240381872A1, “SUBSTITUTED 2,3-DIHYDRO[1,3]THIAZOLO[4,5-B]PYRIDINES, SALTS THEREOF AND THEIR USE AS HERBICIDALLY ACTIVE SUBSTANCES” (BAYER AKTIENGESELLSCHAFT, priority 2021, published 2024)

How the values were obtained:
Assay type in all cases: in vivo
[1] = tested on: Digitaria sanguinalis (DIGSA); experiment: Herbicidal post-emergence action, section B (Table B12); details: Digitaria sanguinalis, post-emergence, 504 h; application rate 1280 g/ha; visual rating about 3 weeks after treatment vs untreated controls; read-out: post-emergence activity against DIGSA in %
Method: (§1) Seeds of mono- and dicotyledonous weed plants were placed in plastic pots in sandy loam soil (doubly sown with in each case one species of mono- or dicotyledonous weed plants per pot), covered with soil and cultivated in a greenhouse under controlled growth conditions. 2 to 3 weeks after sowing, the test plants were treated at the one-leaf stage. The compounds of the invention, formulated in the form of wettable powders (WP) or as emulsion concentrates (EC), were applied onto the green parts of the plants as aqueous suspension or emulsion with addition of 0.5% additive at a water application rate of 600 liters per hectare (converted). After the test plants had been kept in the greenhouse under optimum growth conditions for about 3 weeks, the activity of the preparations was rated visually in comparison to untreated controls. For example, 100% activity=the plants have died, 0% activity=like control plants.

[2] = tested on: Echinochloa crus-galli (ECHCG); experiment: Herbicidal post-emergence action, section B (Table B3); details: rated visually after about 3 weeks
Method: as §1

[3] = tested on: Setaria viridis (SETVI); experiment: Herbicidal post-emergence action, section B (Table B8); details: Setaria viridis, post-emergence, 504 h; application rate 320 g/ha; visual rating about 3 weeks after treatment vs untreated controls; read-out: post-emergence activity against SETVI in %
Method: as §1

[4] = tested on: Setaria viridis (SETVI); experiment: Herbicidal pre-emergence action, section A (Table A8); details: application rate 320 g/ha
Summary of the method: (§2)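 WP/EC formulations, aqueous, 0.5% additive, 600 l/ha → soil surface over seeds in sandy loam → greenhouse, optimum growth → visual % damage vs untreated at ca. 3 weeks.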

[5] = tested on: Echinochloa crus-galli (ECHCG); experiment: Herbicidal pre-emergence action, section A (Table A3); details: application rate 320 g/ha, visual grading after ca. 3 weeks vs untreated controls
Summary of the method: as §2

[6] = tested on: Poa annua (POAAN); experiment: Herbicidal post-emergence action, section B (Table B7); details: Poa annua, post-emergence, 504 h; application rate 1280 g/ha; visual rating about 3 weeks after treatment vs untreated controls; read-out: post-emergence activity against POAAN in %
Summary of the method: (§3)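 Weeds were sown in sandy loam and grown in a greenhouse, then sprayed at the one-leaf stage 2 to 3 weeks after sowing. Compounds, formulated as WP or EC, went on as aqueous suspension or emulsion with 0.5% additive at 600 liters per hectare. Visual rating after about 3 weeks against untreated controls (100% = plants dead, 0% = like controls).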

[7] = tested on: Amaranthus retroflexus (AMARE); experiment: Herbicidal pre-emergence action, section A (Table A11); details: application rate 320 g/ha
Summary of the method: as §2

[8] = tested on: Lolium rigidum (LOLRI); experiment: Herbicidal pre-emergence action, section A (Table A5); details: application rate 320 g/ha, visual grading after ca. 3 weeks vs untreated controls
Summary of the method: as §2

[9] = tested on: Abutilon theophrasti (ABUTH); experiment: Herbicidal post-emergence action, section B (Table B1); details: Abutilon theophrasti, 504 h, application rate 1280 g/ha, rated visually after about 3 weeks, read-out: post-emergence activity against ABUTH in %
Method: as §1

[10] = tested on: Digitaria sanguinalis (DIGSA); experiment: Herbicidal pre-emergence action, section A (Table A12)
Summary of the method: as §2

[11] = tested on: Stellaria media (STEME); experiment: Herbicidal post-emergence action, section B (Table B9); details: visual rating about 3 weeks after treatment vs untreated controls
Summary of the method: as §3

[12] = tested on: Stellaria media (STEME); experiment: Herbicidal pre-emergence action, section A (Table A9); details: application rate 320 g/ha
Summary of the method: as §2

[13] = tested on: Kochia scoparia (KCHSC); experiment: Herbicidal pre-emergence action, section A (Table A4); details: application rate 320 g/ha, visual grading after ca. 3 weeks vs untreated controls
Summary of the method: as §2

[14] = tested on: Veronica persica (VERPE); experiment: Herbicidal post-emergence action, section B (Table B10); details: Veronica persica, post-emergence, 504 h; application rate 320 g/ha; visual rating about 3 weeks after treatment vs untreated controls; read-out: post-emergence activity against VERPE in %
Summary of the method: as §3

[15] = tested on: Amaranthus retroflexus (AMARE); experiment: Herbicidal post-emergence action, section B (Table B11); details: visual rating about 3 weeks after treatment vs untreated controls
Summary of the method: as §3

[16] = tested on: Veronica persica (VERPE); experiment: Herbicidal pre-emergence action, section A (Table A10)
Summary of the method: as §2

[17] = tested on: Matricaria inodora (MATIN); experiment: Herbicidal pre-emergence action, section A (Table A6); details: application rate 1280 g/ha, visual grading after ca. 3 weeks vs untreated controls
Summary of the method: as §2

[18] = tested on: Poa annua (POAAN); experiment: Herbicidal pre-emergence action, section A (Table A7); details: application rate 320 g/ha, visual grading after ca. 3 weeks vs untreated controls
Summary of the method: as §2

[19] = tested on: Lolium rigidum (LOLRI); experiment: Herbicidal post-emergence action, section B (Table B5); details: application rate 1280 g/ha, visual rating about 3 weeks after treatment vs untreated controls
Method: as §1

[20] = tested on: Alopecurus myosuroides (ALOMY); experiment: Herbicidal pre-emergence action, section A (Table A2); details: application rate 1280 g/ha; visual grading after ca. 3 weeks vs untreated controls
Source text: Seeds of mono- and dicotyledonous weed plants were sown in plastic pots (double sowings with one species of mono- and one species of dicotyledonous weed plants per pot), in sandy loam, and covered with soil. The compounds according to the invention, formulated in the form of wettable powders (WP) or as emulsifiable concentrates (EC), were applied to the surface of the covering soil as aqueous suspension or emulsion, with the addition of 0.5% of an additive, at an application rate of 600 l of water per hectare (converted). Following treatment, the pots were placed in a greenhouse and kept under optimum growth conditions for the test plants. The visual grading of the damage to the test plants was carried out after ca. 3 weeks in comparison to untreated controls (herbicidal effect in percent (%): 100% effect=plants have died off, 0% effect=as control plants).

Cc1cc2c(nc1-c1ccccc1Cl)N(S(C)(=O)=O)CS2 [Example I-142, 5-(2-chlorophenyl)-6-methyl-3-(methylsulfonyl)-2,3-dihydro[1,3]thiazolo[4,5-b]pyridine]
pest or weed control at 1280 g/ha [1]: 90% | pest or weed control at 320 g/ha ([2]; Echinochloa crus-galli, 504 h, application rate 320 g/ha, read-out: post-emergence activity against ECHCG in %): 90% | pest or weed control at 320 g/ha [3]: 90% | pest or weed control at 320 g/ha ([4]; Setaria viridis, 504 h, read-out: pre-emergence activity against SETVI in %): 100% | pest or weed control at 320 g/ha ([5]; Echinochloa crus-galli, pre-emergence, 504 h, read-out: pre-emergence activity against ECHCG in %): 100% | pest or weed control at 1280 g/ha [6]: 90% | pest or weed control at 320 g/ha ([7]; Amaranthus retroflexus, 504 h, read-out: pre-emergence activity against AMARE in %): 90% | pest or weed control at 320 g/ha ([8]; Lolium rigidum, pre-emergence, 504 h, read-out: pre-emergence activity against LOLRI in %): 100% | pest or weed control at 1280 g/ha [9]: 90% | pest or weed control at 1280 g/ha ([10]; Digitaria sanguinalis, 504 h, application rate 1280 g/ha, read-out: pre-emergence activity against DIGSA in %): 100% | pest or weed control at 1280 g/ha ([11]; Stellaria media, post-emergence, 504 h, application rate 1280 g/ha, read-out: post-emergence activity against STEME in %): 90% | pest or weed control at 320 g/ha ([12]; Stellaria media, 504 h, read-out: pre-emergence activity against STEME in %): 90% | pest or weed control at 320 g/ha ([13]; Bassia scoparia, pre-emergence, 504 h, read-out: pre-emergence activity against KCHSC in %): 90% | pest or weed control at 320 g/ha [14]: 90% | pest or weed control at 320 g/ha ([15]; Amaranthus retroflexus, post-emergence, 504 h, application rate 320 g/ha, read-out: post-emergence activity against AMARE in %): 90% | pest or weed control at 320 g/ha ([16]; Veronica persica, 504 h, application rate 320 g/ha, read-out: pre-emergence activity against VERPE in %): 90% | pest or weed control at 1280 g/ha ([17]; Tripleurospermum inodorum, pre-emergence, 504 h, read-out: pre-emergence activity against MATIN in %): 90% | pest or weed control at 320 g/ha ([18]; Poa annua, pre-emergence, 504 h, read-out: pre-emergence activity against POAAN in %): 100% | pest or weed control at 1280 g/ha ([19]; Lolium rigidum, post-emergence, 504 h, read-out: post-emergence activity against LOLRI in %): 90%

Cc1cc2c(nc1-c1cccc(F)c1F)N(C(=O)C13CCCC1C(Cl)=NO3)CS2 (stereo not shown) [Example I-156]
post-emergence activity against ECHCG in % ([2]; application rate 1280 g/ha): 90% | pre-emergence activity against SETVI in % [4]: 100% | pre-emergence activity against ECHCG in % [5]: 90% | pre-emergence activity against AMARE in % [7]: 90% | pre-emergence activity against LOLRI in % [8]: 90% | pre-emergence activity against ALOMY in % [20]: 90% | pre-emergence activity against DIGSA in % ([10]; application rate 320 g/ha): 90% | post-emergence activity against STEME in % ([11]; application rate 320 g/ha): 90% | pre-emergence activity against STEME in % [12]: 90% | pre-emergence activity against KCHSC in % [13]: 90% | post-emergence activity against AMARE in % ([15]; application rate 1280 g/ha): 90% | pre-emergence activity against VERPE in % ([16]; application rate 1280 g/ha): 90% | pre-emergence activity against MATIN in % [17]: 90% | pre-emergence activity against POAAN in % [18]: 100% | post-emergence activity against LOLRI in % [19]: 90%
